For 25 compounds, IC50 results are on record in patent publication US7829578B1, “Aromatic ketones and uses thereof” (Oregon Health & Science University, priority 2005, dated 2010).

Assay type in all cases: cell-based
The test system of assay [1] is Murine splenic lymphocytes. As to the kind of experiment: MSLCs-concanavalin A induced proliferation (blastogenesis) cytotoxicity assay, Alamar Blue fluorescence. The following applies: Table 2, 24-hr MSLCs-concanavalin A induced proliferation. Here is the method:
*Data are the average of at least 3 independent experiments, each performed in triplicate with the aid of a Precision 2000 robotic pipeting station. IC50 values were determined by the MSF assay. […] MSLCs=Murine splenic lymphocytes. Cytotoxicity was determined using a 24-hr MSLCs-concanavalin A induced proliferation assay using the Alamar Blue fluorescence method. IVTI=in vitro therapeutic index calculated from the ratio of IC50 values based on the cytotoxicity observed in the blastogenesis assay and the antimalarial potency against the D6 strain of P. falciparum. NT=not tested.
*Data are the average of at least 3 independent experiments, each performed in triplicate with the aid of a Precision 2000 robotic pipeting station. IC50 values were determined by the MSF assay (Smilkstein et al., AAC, 2004). MSLCs=Murine splenic lymphocytes. Cytotoxicity was determined using a 48-hr MSLCs-concanavalin A induced proliferation assay using the Alamar Blue fluorescence method. IVTI=in vitro therapeutic index calculated from the ratio of IC50 values of the cytotoxicity observed in the blastogenesis assay and antimalarial potency against the D6 strain of P. falciparum. NA=not applicable; ND=not determined.
In general terms: Resazurin is reduced to fluorescent resorufin, in cell work by metabolically active cells.

The test system of assay [2] is drug susceptible (D6) strain of Plasmodium falciparum. As to the kind of experiment: In vitro antimalarial MSF (SyBrGreen I fluorescence) assay, D6 strain. Here is the method: (§1) Four different laboratory strains of P. falciparum were cultured in human erythrocytes by standard methods under a low oxygen atmosphere (5% O2, 5% CO2, 90% N2) in an environmental chamber. The culture medium was RPMI 1640, supplemented with 25 mM Hepes buffer, 25 mg/liter gentamicin sulfate, 45 mg/liter hypoxanthine, 10 mM glucose, 2 mM glutamine, and 0.5% Albumax II (complete medium). The parasites were maintained in fresh human erythrocytes suspended at a 2% hematocrit in complete medium at 37° C. Stock cultures were sub-passaged every 3 to 4 days by transfer of infected red cells to a flask containing complete medium and uninfected erythrocytes.
(§2) In vitro antimalarial activity of the test compounds was assessed by a fluorescence-based method described previously (Smilkstein et al., 2004, Antimicrobial Agents and Chemotherapy, Vol. 48, pgs. 1803-1806) (reference format?). The studies were set up in triplicate in 96 well plates with two-fold dilutions of each test compound across the plate in a total volume of 100 μl and at a final red blood cell concentration of 2% (v/v). Stock solutions of each drug were prepared by dissolving in DMSO at 10 mM. […] In every case, an additional determination was performed to ensure bracketing of the IC50 value by at least an order of magnitude.
(§3) Automated pipeting and dilution was carried out by a programmable Precision 2000 robotic station (Bio-Tek, Winooski, Vt.). An initial parasitemia of 0.2% was attained by addition of normal uninfected red cells to a stock culture of asynchronous parasite infected red cells (PRBC). The plates were incubated for 72 hrs at 37° C. in an atmosphere of 5% CO2, 5% O2, and 90% N2. After this period, the SyBrGreen I dye-detergent mixture (100 μl) was added and the plates were incubated at room temperature for an hour in the dark and then placed in a 96-well fluorescence plate reader (Gemini-EM, […]) for analysis with excitation and emission wavelength bands centered at 497 and 520 nm, respectively.

Assay [3] concerns multi-drug resistant (Dd2) strain of Plasmodium falciparum. As to the kind of experiment: In vitro antimalarial MSF (SyBrGreen I fluorescence) assay, Dd2 strain. Particulars: Table 2, 72 hrs, average of at least 3 experiments. Here is the method:
as §1, §2, §3

The mark [4] stands for this setting: Table 2, MSF assay, 72 hrs, average of at least 3 experiments, read-out: D6 IC50.
Setting [5] is: Plasmodium falciparum, D6, Table 4, MSF assay, read-out: D6 IC50.
Where [6] appears, read: Plasmodium falciparum, D6, strain not given, read-out: IC50 value of parent compound used for comparison.

Where two headings read alike, the source gives them in different places.

In the case of `O=c1c2ccccc2[nH]c2c(OCCCCCC(F)(F)F)cccc12` [compound 27], the IC50 – broadly, the concentration that gives 50% inhibition – was more than 25000 nM in assay [1], 446 nM in assay [2] (setting [4]) and 515 nM in assay [3].

Take `O=c1c2ccc(Cl)cc2[nH]c2ccc(O)cc12` [compound 8]: the concentration for half-maximal inhibition (IC50) in assay [1] turned out to be 24000 nM; in assay [2] (setting [4]), 190 nM; in assay [3], 260 nM.

On to `OC(c1cc(C(F)(F)F)nc2c(C(F)(F)F)cccc12)C1CCCCN1` (racemic) [compound 38], for which the half-maximal inhibitory concentration (IC50) in assay [1] was found to be 4800 nM; in assay [2] (setting [4]), 5.9 nM; in assay [3] it was 8.8 nM.

For `O=c1c2ccc(Cl)cc2[nH]c2cc(OCCCCCC(F)(F)F)ccc12` [compound 21], the IC50 in assay [1] is more than 25000 nM; in assay [2] (setting [4]), 0.06 nM; in assay [3] it was 0.07 nM.

`O=c1c2ccccc2[nH]c2ccc(O)cc12` [compound 5]: the concentration for half-maximal inhibition (IC50) in assay [1] was more than 25000 nM; in assay [2] (setting [4]) it was 9000 nM; in assay [3] it was 4400 nM.

Consider `O=c1c2ccccc2[nH]c2cc(O)ccc12` [compound 6], for which the IC50 was more than 25000 nM in assay [1], 2000 nM in assay [2] (setting [4]) and 504 nM in assay [3].

For `O=c1c2ccc(Cl)cc2[nH]c2cc(OCCCCCCCCO)ccc12` [compound 29], the results for the IC50 in assay [1], in assay [2] (setting [4]) and in assay [3] were more than 25000 nM, 2.2 nM and 3.5 nM, respectively.

On to `O=c1c2ccc(Cl)cc2[nH]c2cc(OCCCC(F)(F)F)ccc12` [compound 17], for which the 50% inhibitory concentration (IC50) in assay [1] is more than 25000 nM; in assay [2] (setting [4]) it was 1 nM; in assay [3], 1.2 nM.

For `O=C1C=C(OCCCCCC(F)(F)F)C(=O)c2ccccc21` [compound 12], the values for the IC50 in assay [1], in assay [2] (setting [4]) and in assay [3] were 5600 nM, 67 nM and 95 nM, respectively.

On to `O=C1C=C(CCCCCC(F)(F)F)C(=O)c2ccccc21` [compound 49], for which, in assay [2] (setting [5]), the IC50 came to 823 nM.

Consider `O=c1c2ccc(O)cc2oc2cc(O)ccc12` [compound 52], for which the half-maximal inhibitory concentration (IC50) in assay [2] (Plasmodium falciparum, D6, read-out: D6 IC50, nM) was more than 100000 nM.

For the compound `O=c1c2ccc(Cl)cc2[nH]c2ccc(OCCCCCC(F)(F)F)cc12` [compound 22], the figures for the IC50 in assay [1], in assay [2] (setting [4]) and in assay [3] were more than 25000 nM, 10 nM and 15 nM, respectively.

With `O=c1c2ccc(Cl)cc2[nH]c2cc(OCCCCC(F)(C(F)(F)F)C(F)(F)F)ccc12` [compound 24], the concentration for half-maximal inhibition (IC50) in assay [1] is more than 25000 nM; in assay [2] (setting [4]) it was 0.0015 nM.

Turning to `O=c1c2ccc(O)cc2oc2cc(OCCCCCC(F)(F)F)ccc12` [compound 53], the half-inhibitory concentration (IC50) in assay [2] (setting [5]) stood at 780 nM.

For `O=c1c2ccc(Cl)cc2[nH]c2cc(OCCCCCCCC(F)(F)F)ccc12` [compound 28], the IC50 was more than 25000 nM in assay [1], 0.16 nM in assay [2] (setting [4]) and 0.17 nM in assay [3].

As to `O=c1c2ccc(OCCCCCC(F)(F)F)cc2[nH]c2cc([N+](=O)[O-])ccc12` [compound 33], the IC50 was more than 25000 nM in assay [1], 3.2 nM in assay [2] (setting [4]) and 5.8 nM in assay [3].

In assay [1], `Nc1ccc2c(=O)c3ccc(OCCCCCC(F)(F)F)cc3[nH]c2c1` [compound 34] had a half-inhibitory concentration (IC50) of more than 25000 nM.

Regarding `O=C1c2ccccc2Cc2ccc(O)cc21` [compound 54], in assay [2] (setting [5]), the IC50 stood at 8300 nM.

With `COc1ccc2c(=O)cc(C)[nH]c2c1` [No. 43, 2-methyl-7-methoxy-4-(1H)-quinolone], the IC50 in assay [2] (setting [6]) was more than 2500 nM.

Regarding `O=C1c2ccccc2Cc2ccc(OCCCCCC(F)(F)F)cc21` [compound 55], in assay [2] (setting [5]), the half-inhibitory concentration (IC50) came out at 510 nM.

Take `O=C1C=C(O)C(=O)c2ccccc21` [No. 47, 2-hydroxy-1,4-naphthoquinone, reference compound]: the 50% inhibitory concentration (IC50) in assay [2] (setting [6]) is approximately 1800 nM.

Consider `O=c1c2ccc(O)cc2oc2cc(O)ccc12` [No. 52, 3,6-dihydroxyxanthone, reference compound], for which the IC50 in assay [2] (Plasmodium falciparum, D6, read-out: IC50 value of parent compound used for comparison) is more than 100000 nM.

With `O=c1c2ccc(O)cc2[nH]c2cc(Cl)ccc12` [No. 14, 3-hydroxy-6-chloroacridone], the IC50 in assay [2] (setting [6]) is more than 2200 nM.

Regarding `O=C1C=C(OCCCCC(F)(F)F)C(=O)c2ccccc21` [compound 48], the concentration for half-maximal inhibition (IC50) in assay [2] (setting [5]) came out at 51.1 nM.

`O=C1C=C(O)C(=O)c2ccccc21` [compound 47]: the half-inhibitory concentration (IC50) in assay [2] (setting [5]) was determined as 1800 nM.
